# Values quoted from earlier work in patent publication US4239780A, “Phospholipase A2 inhibition” (The Upjohn Company, priority 1979, dated 1980).
# System: phospholipase A2 from venom of Russel Viper
# Conditions: enzyme from Russel Viper venom; cited from earlier work
smiles,measurement,value
"COc1ccc2c(c1)c(CC(=O)O)c(C)n2C(=O)c1ccc(Cl)cc1 [indomethacin, Indomethacin]",inhibition of phospholipase A2,inactive
